This experiment concerns M. tuberculosis MDR-P (drug resistant). The experiment is described as follows: microbe, parasite or virus in culture. In kind it is cell-based, Mycobacterium tuberculosis. Conditions: for IC50 M. tuberculosis MDR-P (drug resistant): 7H11 agar with 10% OADC.

As a reminder, the IC50 is the concentration at which inhibition is half-maximal.

As to `CO[C@H]1/C=C/O[C@@]2(C)Oc3c(C)c(O)c4c(O)c(c(/C=N/N5CCN(C)CC5)c(O)c4c3C2=O)NC(=O)/C(C)=C\C=C\[C@H](C)[C@H](O)[C@@H](C)[C@@H](O)[C@@H](C)[C@H](OC(C)=O)[C@@H]1C` [Rifampicin, reference compound], the IC50 (Mycobacterium tuberculosis, read-out: IC50 M. tuberculosis MDR-P (drug resistant)) was above 150 µg/mL.
With munumbicin B, the “IC50 M. tuberculosis MDR-P (drug resistant)” value is recorded as 10 micrograms/ml.
In the case of munumbicin C, the “IC50 M. tuberculosis MDR-P (drug resistant)” value was above 125 micrograms/ml.

Source of the values: patent publication US7259004B1, “Endophytic streptomycetes from higher plants with biological activity” (Montana State University, priority 2002, dated 2007).
